Laboratory results from paper PMC4356374, “Structural characterization of substrate and inhibitor binding to farnesyl pyrophosphate synthase from Pseudomonas aeruginosa” (Acta Crystallographica Section D: Biological Crystallography, 2015).

What was measured:
[1] = target: T1, farnesyl pyrophosphate synthase (PaFPPS, PA4043) (Pseudomonas aeruginosa, UniProt Q9HWY4); assay: X-ray crystal structure at […] Å (also with GPP, 3zou); DSF shift […] °C; no significant inhibition at […]; format: binding
T1 construct: gene ispA; full-length, 295 amino acids, His tag cleaved with TEV

[2] = target: T2, farnesyl pyrophosphate synthase (PaFPPS, PA4043) (Pseudomonas aeruginosa, UniProt Q9HWY4); assay: turnover with GPP by the purified enzyme, pyrophosphatase-coupled malachite green assay (kcat […] s^-1; no inhibition implied); format: biochemical
T2 construct: gene ispA; full-length, 295 amino acids
T2 sequence (Q9HWY4 1-295): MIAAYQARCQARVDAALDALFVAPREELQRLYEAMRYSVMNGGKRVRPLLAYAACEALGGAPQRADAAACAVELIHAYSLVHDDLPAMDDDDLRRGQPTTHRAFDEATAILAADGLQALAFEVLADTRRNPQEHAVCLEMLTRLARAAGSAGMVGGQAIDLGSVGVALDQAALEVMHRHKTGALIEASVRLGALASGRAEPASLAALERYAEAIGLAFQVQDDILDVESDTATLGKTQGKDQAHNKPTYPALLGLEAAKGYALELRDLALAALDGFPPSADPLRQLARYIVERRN

[3] = target: the molecule itself; assay: crystal structure; sitting-drop vapour diffusion, 25 mg/ml protein; native: 20% PEG 3350, 0.2 M NaF, 0.1 M bis-tris propane pH 6.5; asymmetric unit holds a dimer related by a twofold noncrystallographic axis; 1.55 A

Question: Which “X-ray crystal structure at 1.90 Å (also with GPP, 3zou); DSF shift 2.8 °C; no si” value [1] does the source give for `O=C(O)CCn1c(=O)oc2ccccc21` [SPB02696, 3-[2-hydrozybenzo[d]oxazol-3(2H)-yl]propanoic acid] here?
Answer: The value was “we describe the details of the enzyme–ligand interactions for fragment hit SPB02696 (termed 6H6 in the deposited coordinate file)”.

Question: `C=C(C)CCO[P@@](=O)(O)OP(=O)(O)O` [isopentenyl pyrophosphate] was tested. Which “turnover with GPP by the purified enzyme, pyrophosphatase-coupled malachite gree” value [2] did it give?
Answer: Its value is “no reaction took place without both IPP and GPP being present”.

B1: farnesyl pyrophosphate synthase from Pseudomonas aeruginosa PAO1 (locus PA4043) (enzyme, UniProt Q9HWY4 1-295, looked up)
chain: MIAAYQARCQARVDAALDALFVAPREELQRLYEAMRYSVMNGGKRVRPLLAYAACEALGGAPQRADAAACAVELIHAYSLVHDDLPAMDDDDLRRGQPTTHRAFDEATAILAADGLQALAFEVLADTRRNPQEHAVCLEMLTRLARAAGSAGMVGGQAIDLGSVGVALDQAALEVMHRHKTGALIEASVRLGALASGRAEPASLAALERYAEAIGLAFQVQDDILDVESDTATLGKTQGKDQAHNKPTYPALLGLEAAKGYALELRDLALAALDGFPPSADPLRQLARYIVERRN
notes: farnesyl pyrophosphate synthase, P. aeruginosa PAO1, locus PA4043; open reading frame amplified from the genome; protein of 295 amino acids; residues Ala227-Gly254 (loop-HI) disordered in all structures; Vector pNIC28-Bsa4 with N-terminal six-histidine tag and TEV site; the tag is cleaved in the purification; The ESI-MS mass of 34 017.5 Da was of the protein with the His tag; also called PaFPPS; …
Question: Which “stoichiometry N” value [3] does the source give for B1 here?
Answer: The value was 2.
